Where a name gives a salt, the structure may show the parent alone.
target: T1, guinea-pig B2 receptor (Cavia porcellus, UniProt O70526); experiment: [3H]-bradykinin binding to guinea-pig ileum membranes; conditions: test compound at 10^-6 M, [3H]-bradykinin 120 pM, 90 min at 20° C., read-out: ACTIVITY % (percentage inhibition of the binding of [3H]-bradykinin)
T1 construct: Ileum segments are isolated from male guinea-pigs of the Dunkin-Hartley strain; tissue Iffa Credo, l'Arbresle, France (supplier of the animals); host or cells: ileum membranes of male Dunkin-Hartley guinea pigs
T1 sequence (O70526 1-372): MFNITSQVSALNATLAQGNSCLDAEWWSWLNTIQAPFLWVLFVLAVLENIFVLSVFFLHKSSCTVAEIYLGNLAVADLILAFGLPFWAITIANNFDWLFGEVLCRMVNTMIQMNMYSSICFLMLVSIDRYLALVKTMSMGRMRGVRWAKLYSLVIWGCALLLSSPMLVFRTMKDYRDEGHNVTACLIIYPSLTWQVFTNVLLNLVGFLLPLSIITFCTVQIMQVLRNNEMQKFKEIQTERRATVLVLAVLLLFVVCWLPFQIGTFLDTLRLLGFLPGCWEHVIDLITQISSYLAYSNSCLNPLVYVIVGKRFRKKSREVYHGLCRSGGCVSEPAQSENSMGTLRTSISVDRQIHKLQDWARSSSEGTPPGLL
Protocol: The following pharmacological test is used: Ileum segments are isolated from male guinea-pigs of the Dunkin-Hartley strain (Iffa Credo, l'Arbresle, France) and ground in the following TES buffer: TES 25 mM, 1,10-phenanthroline 1 mM (pH 6.8), bacitracin 140 μg/ml, BSA 1 g/l. The membranes are then isolated by centrifugation (18,000 rpm; 20 min; 4° C.). The binding studies are carried out in the TES buffer using [^3 H]-bradykinin (120 pM) and 50 μg of membrane protein per test (final volume 500 μl) with an equilibrium time of 90 min at 20° C. […] The results obtained from these tests (shown as "activity") are collated in Table I below with reference to the Examples given in the description.

Row | inhibition at 1 µM [%] | SMILES
1 | 100 | Cc1ccc2cccc(OCc3c(Cl)ccc(S(=O)(=O)N4CCC[C@H]4C(=O)NCCNC(=N)N)c3Cl)c2n1 [Example 16, 1-[[3-[(2-Methylquinolin-8-yl)oxymethyl]-2,4-dichlorophenyl]sulfonyl]-N-[2-[(aminoiminomethyl)amino]ethyl]-2-(S)-pyrrolidinecarboxamide bistrifluoroacetate]
2 | 100 | Cc1ccc2cccc(OCc3c(Cl)ccc(S(=O)(=O)N4CCC[C@H]4C(=O)NCCCN)c3Cl)c2n1 [Example 9, 1-[[3-[(2-Methylquinolin-8-yl)oxymethyl]-2,4-dichlorophenyl]sulfonyl]-N-(3-aminopropyl)-2-(S)-pyrrolidinecarboxamide dihydrochloride]
3 | 100 | Cc1cc(C)c2cccc(OCc3c(Cl)ccc(S(=O)(=O)N4C[C@H](O)C[C@H]4C(=O)N4CCN(C(=N)N)CC4)c3Cl)c2n1 [Example 15, 1-[[3-[(2,4-Dimethylquinolin-8-yl)oxymethyl]-2,4-dichlorophenyl]sulfonyl]-2-(S)-[[4-(aminoiminomethyl)piperazin-1-yl]carbonyl]-4-(R)-hydroxypyrrolidine bistrifluoroacetate]
4 | 100 | Cc1ccc2cccc(OCc3c(Cl)ccc(S(=O)(=O)N4CCC[C@H]4C(=O)NCCN)c3Cl)c2n1 [Example 3, 1-[[3-[(2-Methylquinolin-8-yl)oxymethyl]-2,4-dichlorophenyl]sulfonyl]-N-(2-aminoethyl)-2-(S)-pyrrolidinecarboxamide]
5 | 100 | Cc1ccc2cccc(OCc3c(Cl)ccc(S(=O)(=O)N4CCC[C@H]4C(=O)N4CCNCC4)c3Cl)c2n1 [Example 2, 1-[[3-[(2-Methylquinolin-8-yl)oxymethyl]-2,4-dichlorophenyl]sulfonyl]-2-(S)-[(piperazin-1-yl)carbonyl]pyrrolidine]
6 | 100 | Cc1ccc2cccc(OCc3c(Cl)ccc(S(=O)(=O)N4CCC[C@H]4C(=O)NC4CCNCC4)c3Cl)c2n1 [Example 8, 1-[[3-[(2-Methylquinolin-8-yl)oxymethyl]-2,4-dichlorophenyl]sulfonyl]-N-(piperidin-4-yl)-2-(S)-pyrrolidinecarboxamide dihydrochloride]
7 | 98 | Cc1cc(C)c2cccc(OCc3c(Cl)ccc(S(=O)(=O)N4CCC[C@H]4C(=O)NCCCNC(=N)N)c3Cl)c2n1 [Example 20, 1-[[3-[(2,4-Dimethylquinolin-8-yl)oxymethyl]-2,4-dichlorophenyl]sulfonyl]-N-[3-[(aminoiminomethyl)amino]propyl]-2-(S)-pyrrolidinecarboxamide dihydrochloride]
8 | 97 | Cc1cc(C)c2cccc(OCc3c(Cl)ccc(S(=O)(=O)N4CCC[C@H]4C(=O)NCCNC(=N)N)c3Cl)c2n1 [Example 19, 1-[[3-[(2,4-Dimethylquinolin-8yl)oxymethyl]-2,4-dichlorophenyl]sulfonyl]-N-[2-[(aminoiminomethyl)amino]ethyl]-2-(S)-pyrrolidinecarboxamide dihydrochloride]
9 | 100 | Cc1ccc2cccc(OCc3c(Cl)ccc(S(=O)(=O)N4CCC[C@H]4C(=O)NCC4CCNCC4)c3Cl)c2n1 [Example 10, 1-[[3-[(2-Methylquinolin-8-yl)oxymethyl]-2,4-dichlorophenyl]sulfonyl]-N-[(piperidin-4-yl)methyl]-2-(S)-pyrrolidinecarboxamide dihydrochloride]
10 | 98 | Cc1cc(C)c2cccc(OCc3c(Cl)ccc(S(=O)(=O)N4CCC[C@H]4C(=O)N4CCN(C(=N)N)CC4)c3Cl)c2n1 [Example 14, 1-[[3-[(2,4-Dimethylquinolin-8-yl)oxymethyl]-2,4-dichlorophenyl]sulfonyl]-2-(S)-[[4-(aminoiminomethyl)piperazin-1-yl]carbonyl]pyrrolidine bistrifluoroacetate]
11 | 98 | Cc1ccc2cccc(OCc3c(Cl)ccc(S(=O)(=O)N4CCC[C@H]4C(=O)N4CCN(C(=N)N)CC4)c3Cl)c2n1 [Example 24, 1-[[3-[(2-Methylquinolin-8-yl)oxymethyl]-2,4-dichlorophenyl]sulfonyl]-2-(S)-[[4-(aminoiminomethyl)piperazin-1-yl]carbonyl]pyrrolidine dihydrochloride]
12 | 100 | Cc1ccc2cccc(OCc3c(Cl)ccc(S(=O)(=O)N4CCC[C@H]4C(=O)NC4CCN(C(=N)N)CC4)c3Cl)c2n1 [Example 23, 1-[[3-[(2-Methylquinolin-8-yl)oxymethyl]-2,4-dichlorophenyl]sulfonyl]-N-[1-(aminoiminomethyl)piperidin-4-yl]-2-(S)-pyrrolidinecarboxamide dihydrochloride]
13 | 100 | Cc1ccc2cccc(OCc3c(Cl)ccc(S(=O)(=O)N4CCC[C@H]4C(=O)N4CCN(C(=NC(C)C)NC(C)C)CC4)c3Cl)c2n1 [Example 27, 1-[[3-[(2-Methylquinolin-8-yl)oxymethyl]-2,4-dichlorophenyl]sulfonyl]-2-(S)-[[4-[(1-methylethylamino)(1-methylethylimino)methyl]piperazin-1-yl]-carbonyl]pyrrolidine dihydrochloride]
14 | 100 | Cc1ccc2cccc(OCc3c(Cl)ccc(S(=O)(=O)N4CCC[C@H]4C(=O)N4CC(C)N(C(=N)N)C(C)C4)c3Cl)c2n1 (stereo partly drawn) [Example 25, 1-[[3-[(2-Methylquinolin-8yl)oxymethyl]-2,4-dichlorophenyl]sulfonyl]-2-(S)-[[4-(aminoiminomethyl)-3,5-dimethylpiperazin-1-yl]carbonyl]pyrrolidine dihydrochloride]
15 | 100 | Cc1cc(C)c2cccc(OCc3c(Cl)ccc(S(=O)(=O)N4CCC[C@H]4C(=O)N4CCNCC4)c3Cl)c2n1 [Example 5, 1-[[3-[(2,4-Dimethylquinolin-8-yl)oxymethyl]-2,4-dichlorophenyl]sulfonyl]-2-(S)-[(piperazin-1-yl)carbonyl]pyrrolidine bistrifluoroacetate]
16 | 98 | Cc1ccc2cccc(OCc3c(Cl)ccc(S(=O)(=O)N4CCC[C@H]4C(=O)NCC4CCN(C(=N)N)CC4)c3Cl)c2n1 [Example 22, 1-[[3-[(2-Methylquinolin-8-yl)oxymethyl]-2,4-dichlorophenyl]sulfonyl]-N-[[1-(aminoiminomethyl)piperidin-4-yl]methyl]-2-(S)-pyrrolidinecarboxamide dihydrochloride]

Reference: patent US6211181A, “1-Benzenesulfonyl pyrrolidine derivatives as bradykinin receptor antagonists” (Fournier Industrie et Sante, priority 1995, dated 2001)
